Paper PMC6337261, “Short Peptides with Uncleavable Peptide Bond Mimetics as Photoactivatable Caspase-3 Inhibitors” (Molecules, 2019)

Key:
caspase-3 [1] = experiment: Gel-based competitive ABPP on recombinant caspase-3; format: biochemical; conditions: for Inhibition of caspase-3 activity (caspase ABP labeling): PBS with 1 mM DTT, fluorescent ABP read-out on gel; for Inhibition of caspase-3 (competitive ABPP, Figure S1): triazolo peptides at 100 μM
Experimental: (§1) To check whether our probes function as inhibitors, competitive ABPP [28] was performed. Recombinant caspase-3 was incubated with probes 9a–10c, 11a and 12a with or without irradiation at 365 nm, followed by labeling of residually active caspase-3 with the fluorescent, caspase-directed activity-based probe (ABP) SV149, a tetramethylrhodamine derivative of KMB-01 [29]. Caspase activity itself was not affected by UV irradiation, as shown by bands of equal intensity with and without UV light (Figure 2A). […] To confirm inhibition, we also performed substrate cleavage assays using the fluorogenic aminomethyl coumarin substrate Ac-DEVD-AMC. […] Inhibition of active caspases could also be achieved in an apoptotic cell lysate (Figure 2D).
(§2) Caspase-3, produced in E. coli and purified as described before, was reacted in PBS with 1 mM DTT. Samples were combined with the indicated probe and irradiated with a handheld UV lamp at 365 nm for 30 min at room temperature. For competition experiments with ‘pre-activation,’ the indicated probes were irradiated for 30 min prior to addition to caspase-3, and incubated for an additional 30 min. Next, ABP 13 was added (final concentration 1 μM) to label residual caspase-3 activity. The samples were incubated for 30 min at room temperature, after which 1/3rd volume of 4× Laemmli buffer was added. Samples were heated at 95 °C for 2 min and resolved by 15% SDS-PAGE. Gels were scanned using a Typhoon Trio+ fluorescent scanner with excitation at 532 nm and an emission filter of 580 nm. Gel images were processed with ImageJ (background subtraction with rolling ball radius of 50 pixels and automated contrast adjustment).
(§3) Figure 2 Inhibition of caspase-3. (A) Competitive activity-based protein profiling (ABPP) experiments using ψ(CH2NH) or triazolo peptide derivatives 9–12 with or without irradiation. Compounds 9a–12a were used at 10 μM final concentration, 9b, 9c, 10b and 10c at 100 μM. Inh = caspase inhibitor biotin-DEVD-AOMK, used at 100 nM concentration. (B) Representative progress curves of fluorescence produced by Ac-DEVD-AMC (50 μM) cleavage by caspase-3, irradiated with or without 10 μM of the indicated compounds. (C) Bar graph of residual caspase-3 activity of replicate experiments (n = 2) of those in (B). (D) Inhibition of executioner’s caspase-3 and -7 in lysates of HEK293 cells, treated with cytochrome c/dATP to induce apoptosis.

caspase-3 [2] = experiment: Fluorogenic substrate (Ac-DEVD-AMC) cleavage assay; format: biochemical; conditions: 10 μM compound, 2 nM caspase-3, 50 μM Ac-DEVD-AMC, HEPES pH 7.4 with 10 mM DTT, n = 2
Experimental: as §1
Purified caspase-3 (2 nM) was pre-activated by incubating in caspase reaction buffer (20 mm HEPES pH 7.4, 100 mM NaCl, 1 mM EDTA, 10% sucrose (w/v), 0.1% CHAPS (w/v), 10 mM DTT) for 15 min at 37 °C. Inhibitors 9a, 10a, and DMSO (control) were incubated with the caspase-3 at 10 μM final concentration. One set was irradiated with a handheld UV lamp at 365 nm for 30 min at room temperature whereas the control set was not irradiated. After 30 min, 99 μL of the sample was added to 1 μL of Ac-DEVD-AMC fluorogenic substrate (5 mM in dmso; 50 μM final concentration) in a black 96 well plate. The fluorescence intensity was read using an iD3 SpectraMax platereader (Molecular Devices; excitation wavelength: 340 nm; emission wavelength: 475 nm). The experiment was performed in duplicate. Activity was determined as the slope from the linear part of the progress curve by using GraphPad Prism.
as §3

caspase-3 [3] = experiment: Competitive ABPP with UV pre-activation of the probes; format: biochemical; conditions: compound irradiated at 365 nm for 30 min, light source removed, then added to caspase-3 for 30 min; fluorescent ABP read-out
Experimental: (§4) Compounds were irradiated with UV light of 365 nm for 30 min and after removal of the light source added to caspase-3. Residual caspase activity was measured by using a fluorescent caspase ABP as in our previous experiments above.
as §2
(§5) Figure 3 Non-covalent inhibition of caspase-3 by compounds 9 and 10. (A) Fluorescent labeling of caspase-3 by ψ(CH2NH) peptides 9–10 and triazolo peptides 11–12. […] (B) Deconvoluted ESI-MS of caspase-3. (C) Deconvoluted ESI-MS of caspase-3 after incubation with covalent activity-based probe (ABP) 13. Note that the active site, located on the large subunit, is modified. (D) Deconvoluted ESI-MS of caspase-3 after irradiation in the presence of benzophenone ψ(CH2NH) 10a, not resulting in covalent modification. […] (F) Structures of ψ(CH2NH) peptides 14 and 15 without photocrosslinker. (G) UV irradiation of ψ(CH2NH) peptides 14 and 15 in the presence of benzophenone leads to inhibition of caspase-3, as monitored by competitive ABPP. […] Ac-DEVD-aldehyde (100 nM) was used as a control compound, whereas 9a and 10a (10 μM) were irradiated for 10 min and reacted with sodium bisulfite for an additional 20 min before 30 min incubation with caspase-3 and read-out with a fluorescent caspase ABP.

caspase-3 [4] = experiment: Competitive ABPP with bisulfite aldehyde quenching; format: biochemical
Description: (§6) The presence of a ψ(CH2NH) peptide with benzophenone or UV irradiation alone was not sufficient for inhibition, but all needed to be present to block the caspase-3 active site (Figure 3G,H). We hypothesized that the active species is a peptide aldehyde, formed by oxidation of the ψ(CH2NH) moiety (see also discussion in Section 3). To support this hypothesis, we performed an experiment in which this aldehyde was trapped by sodium bisulfite, forming a sodium bisulfite adduct.
Compounds were incubated with or without irradiation (10 min) in PBS with or without 10 mM NaHSO3 and incubated for another 20 min before addition to caspase-3. After 30 min, ABP 13 was added (final concentration 1 μM) to label residual caspase activity. The samples were incubated for 30 min at room temperature, after which 1/3rd volume of 4× Laemmli buffer was added. Samples were processed in the same way as under Section 4.4.1.
as §5

[5] = LC-MS analysis of probes before and after UV irradiation; format: physicochemical; conditions: irradiation at 365 nm, gradient 10% to 95% acetonitrile with 0.1% formic acid
Experimental: as §4
(§7) Although this points towards a cyclization rather than reaction with a water molecule, it is not clear whether it leads to a potent caspase inhibitor. […] Therefore, cyclization seemed improbable, as this would most likely lead to a shift in retention time. We hypothesized that irradiation could potentially lead to oxidation of a very small amount of the ψ(CH2NH) moiety with benzophenone as a photosensitizer, resulting in minute quantities of aldehydes that were not detected on LC-MS, but were sufficient for caspase-3 inhibition. Oxidation of secondary amines under influence of benzophenone has been reported before. […] Note that triazoles cannot undergo this transformation, further explaining their inactivity. The oxidation hypothesis was supported by an experiment in which ψ(CH2NH) peptides 14 and 15, not containing a benzophenone, were irradiated in the presence of 1 eq of spiked-in benzophenone (Figure 3G–I).
All materials were purchased from Sigma Aldrich GmbH (GmbH, Darmstadt, Germany), Carl Roth GmbH + Co. KG (Karlsruhe, Germany), Thermo Fischer Scientific Inc. (Dreieich, Germany), Rapp Polymere GmbH (Tübingen, Germany), Applichem GmbH (Darmstadt, Germany), VWR International GmbH (Darmstadt, Germany), Merck KGaA (Darmstadt, Germany), CreoSalus Inc. (Louisville, KY, USA), and Iris Biotech GmbH (Marktredwitz, Germany) and were used as received, unless otherwise noted. TLC was performed on pre-coated ALUGRAM SIL G plates with detection by a handheld UV lamp (254 nm) and subsequent staining with potassium permanganate, p-anisaldehyde, ninhydrin or cerium ammonium molybdate. LC-MS analysis was performed on a Thermo LCQ Fleet HPLC-MS/MS system using a gradient of 10% to 95% acetonitrile containing 0.1% formic acid. NMR spectra were recorded on a Bruker Avance DRX 400 spectrometer with tetramethylsilane as internal standard. High resolution ESI-FTMS was performed on a Thermo Scientific LTQ Orbitrap Velos Pro mass spectrometer.

caspase-3 [6] = experiment: Competitive ABPP with ψ(CH2NH) peptides irradiated in presence of spiked-in benzophenone; format: biochemical; conditions: for Inhibition of caspase-3 after irradiation with benzophenone: irradiated in presence of an equimolar amount (1 eq) of benzophenone
Description: as §6, §7
Caspase-3, produced in E. coli and purified as described before, was reacted in PBS with 1 mM DTT. Samples were combined with the indicated probe and irradiated with a handheld UV lamp at 365 nm for 30 min at room temperature. […]
Figure 3 Non-covalent inhibition of caspase-3 by compounds 9 and 10. […] (G) UV irradiation of ψ(CH2NH) peptides 14 and 15 in the presence of benzophenone leads to inhibition of caspase-3, as monitored by competitive ABPP. […] Ac-DEVD-aldehyde (100 nM) was used as a control compound, whereas 9a and 10a (10 μM) were irradiated for 10 min and reacted with sodium bisulfite for an additional 20 min before 30 min incubation with caspase-3 and read-out with a fluorescent caspase ABP.

[7] = 10 μM compound, irradiated at 365 nm for 30 min at room temperature
[8] = 100 μM compound, irradiated at 365 nm for 30 min at room temperature
[9] = 100 μM compound, non-irradiated

Substance	Inhibition of caspase-3 activity (caspase ABP labeling) (caspase-3 [1]; [7])	Inhibition of caspase-3 after UV pre-activation of compound (caspase-3 [3])	Change of probe upon UV irradiation (LC-MS before and after) [5]	Inhibition of caspase-3 activity (caspase ABP labeling) (caspase-3 [1]; [8])	other results
Hexynoyl-Bpa-Asp-Glu-Val-Aspψ(CH2NH)-Ala-NH2 [9a]	complete inhibition	still inhibited	did not show obvious changes		Inhibition of caspase-3 activity (caspase ABP labeling) (caspase-3 [1]; 10 μM compound, non-irradiated): no decrease in caspase ABP labeling; Inhibition of Ac-DEVD-AMC cleavage by caspase-3 (caspase-3 [2]; irradiated at 365 nm for 30 min at room temperature): complete blockage of substrate processing; Inhibition of Ac-DEVD-AMC cleavage by caspase-3 (caspase-3 [2]; not irradiated): little to no inhibition; Inhibition of caspase-3 by irradiated sample exposed to sodium bisulfite (caspase-3 [4]; 10 μM, irradiated 10 min, reacted with 10 mM NaHSO3 for 20 min, then 30 min with caspase-3, fluorescent ABP read-out): lose their inhibitory capacity
Hexynoyl-Asp-Glu-Val-Aspψ(CH2NH)-Ala-NH2 [compound 15]					Inhibition of caspase-3 after irradiation with benzophenone (caspase-3 [6]): still led to inhibition
Hexynoyl-Asp-Glu-Val-Aspψ(CH2NH)-Ala-photoLeu-NH2 [10b]		still inhibited	loss of nitrogen	complete inhibition	Inhibition of caspase-3 activity (caspase ABP labeling) (caspase-3 [1]; [9]): no decrease in caspase ABP labeling
Hexynoyl-p-azido-Phe-Asp-Glu-Val-Aspψ(CH2NH)-Ala-NH2 [9c]				did not show any inhibition	
Hexynoyl-Asp-Glu-Val-Asp(triazolo)-Ala-Bpa-Gly-NH2 [12a]	some inhibition				Inhibition of caspase-3 (competitive ABPP, Figure S1) (caspase-3 [1]): inhibition that is nearly quantitative
Hexynoyl-Asp-Glu-Val-Aspψ(CH2NH)-Ala-p-azido-Phe-NH2 [10c]				did not show any inhibition	
Acetyl-Asp-Glu-Val-Aspψ(CH2NH)-Ala-NH2 [compound 14]					Inhibition of caspase-3 after irradiation with benzophenone (caspase-3 [6]): still led to inhibition; Requirement for inhibition of caspase-3 (caspase-3 [6]; with or without benzophenone (BP) and UV irradiation): needs both BP and UV irradiation
Hexynoyl-photoLeu-Asp-Glu-Val-Aspψ(CH2NH)-Ala-NH2 [9b]		still inhibited	loss of nitrogen	complete inhibition	Inhibition of caspase-3 activity (caspase ABP labeling) (caspase-3 [1]; [9]): no decrease in caspase ABP labeling
Ac-DEVD-aldehyde [Ac-DEVD peptide aldehyde, reference compound]					Inhibition of caspase-3 (caspase-3 [4]; 100 nM, without bisulfite, 30 min incubation with caspase-3, fluorescent ABP read-out): efficiently inhibits caspase-3
Hexynoyl-Bpa-Asp-Glu-Val-Asp(triazolo)-Ala-NH2 [11a]	did not				Inhibition of caspase-3 (competitive ABPP, Figure S1) (caspase-3 [1]): not show efficient inhibition
